The source of these data is patent publication US20070141637A1, “Marker for fenestrae” (priority 2004, published 2007).

The subject of one experiment is bEND5 and Py4.1 cells. In words: Western blotting of candidate proteins in plasma membranes of latrunculin-induced versus control cells. Type of experiment: cell-based, mouse. Conditions: LPM versus CPM, equal amounts of protein. The method, then: To confirm the findings of the subtractive proteomic analysis, immunoblotting on the relevant fractions was performed with antibodies to candidate proteins. By comparing equal amounts of protein in the two conditions, change in the protein levels of cofilin, alpha-enolase, radixin, moesin, annexin II, and hnRNP K was evaluated (FIG. 9A, 9B).
Methods for inducing fenestrae formation in endothelial cells are described in U.S. Provisional Patent No. 60/627,981, which is hereby incorporated by reference in its entirety. Coverslips and dishes were coated with 1% gelatin (Sigma) solution in PBS for 30 minutes at room temperature. Endothelial cells were seeded overnight at a density equivalent to 1.5×10^6 cells per 100 mm dish. Cultures were induced with Cytochalasin B (Sigma) at 10 μM for 2 hours, with Latrunculin A (Molecular Probes) at 2.5 μM for 3 hours, or with a combination of recombinant mouse 75 ng/ml VEGF (R&D systems) for 6-72 hours and 10 μM Cytochalasin B for 2 hours. Cells were processed for biochemistry or morphology immediately after the end of the induction.
All steps in the procedure were performed on ice or in centrifuges pre-cooled to 4° C. Cells grown on 150 mm dishes were washed twice with PBS containing calcium and magnesium (Invitrogen), and once with coating buffer (20 mM MES, 135 mM NaCl, 0.5 mM CaCl2, 1 mM MgCl2, pH 5.5). […]
Background: A western blot detects proteins with antibodies after separation by electrophoresis.

Another experiment relates to Py4.1 cells. In words: Subtractive 2D-gel analysis of plasma membranes, latrunculin-induced versus control cells. Type of experiment: cell-based, mouse. The note with it: Py4.1 plasma membranes, Progenesis Software. Here is the method:
In one embodiment the method of identifying components of fenestrae comprises the step of Subtractive 2D-gel electrophoresis analysis. Sufficient material was pooled to generate one batch of triplicate gels for vehicle-induced and un-induced Py4.1 cells, and three sets of triplicate gels for untreated, vehicle-induced, and induced bEND5 cells (FIG. 6 and FIG. 13). All gels per cell type were analyzed collectively using ProGenesis® software (Prolific, Inc. Newark, Calif.) to obtain fold differences between the staining intensities of spots in the induced and the uninduced samples and p-values for those differences using the Students t-test (FIG. 7). In the first round of analysis, spots that qualified for one or more of the following criteria were selected: a) fold increase in staining intensity greater than 2 in the induced sample, b) p-value less than 0.05 for any fold increase, c) spot being unique in induced sample. A summary of all the spots selected for mass spectrometry, with their accompanying fold differences and p-values is shown in FIG. 15.
Methods for inducing fenestrae formation in endothelial cells are described in U.S. Provisional Patent No. 60/627,981, which is hereby incorporated by reference in its entirety. Coverslips and dishes were coated with 1% gelatin (Sigma) solution in PBS for 30 minutes at room temperature. […]

In the case of `C/C1=C/C(=O)O[C@@H]2C[C@@H](CC[C@H](C)/C=C\C=C\CC1)O[C@@](O)([C@@H]1CSC(=O)N1)C2` [latrunculin, Latrunculin A], the “enrichment of phosphorylated moesin, hnRNP K, cofilin and alpha-enolase in plasma membranes” value with bEND5 and Py4.1 cells is on record as “Enrichment in induced cells is confirmed”. Moreover, the “spot 659 intensity, latrunculin-induced versus control samples” value with Py4.1 cells was 1.772 fold. Moreover, the “spot 401 intensity, latrunculin-induced versus control samples” value in the experiment on Py4.1 cells (part of a train of spots (phosphorylation states)) came out at 3.8 fold.
